Experimental data published in ChEMBL document CHEMBL3132759, “Design and synthesis of a novel series of cyclohexyloxy-pyridyl derivatives as inhibitors of diacylglycerol acyl transferase 1” (Medchemcomm, 2013).
Values after ≈ are worked out from the molar mass of the structure shown.

Experiments:
[1] = Thermodynamic solubility of the compound after 24 hrs at pH 7.4; format: physicochemical; conditions: buffer, read-out: Therm_solubility
[2] = Lipophilicity, logD of the compound; format: physicochemical; conditions: octanol/water
[3] = target: T1, Diacylglycerol O-acyltransferase 1 (Homo sapiens, UniProt O75907); test: Inhibition of human DGAT1
T1 sequence (O75907 whole entry): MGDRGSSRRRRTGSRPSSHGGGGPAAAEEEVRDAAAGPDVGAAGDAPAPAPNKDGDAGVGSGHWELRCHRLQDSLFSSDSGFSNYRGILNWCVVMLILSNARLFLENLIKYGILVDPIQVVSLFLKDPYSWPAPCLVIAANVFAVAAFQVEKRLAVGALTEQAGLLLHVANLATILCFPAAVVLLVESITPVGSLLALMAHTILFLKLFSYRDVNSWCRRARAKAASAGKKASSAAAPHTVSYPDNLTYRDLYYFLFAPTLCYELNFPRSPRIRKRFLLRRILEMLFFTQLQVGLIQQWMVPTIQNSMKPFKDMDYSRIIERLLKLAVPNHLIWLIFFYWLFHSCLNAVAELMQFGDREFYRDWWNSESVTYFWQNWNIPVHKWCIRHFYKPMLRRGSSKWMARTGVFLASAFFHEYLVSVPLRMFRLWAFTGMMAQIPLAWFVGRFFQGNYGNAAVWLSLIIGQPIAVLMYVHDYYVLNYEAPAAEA

[4] = target: T2, Sterol O-acyltransferase 1 (Homo sapiens, UniProt P35610); test: Inhibition of human ACAT1
T2 sequence (P35610 whole entry): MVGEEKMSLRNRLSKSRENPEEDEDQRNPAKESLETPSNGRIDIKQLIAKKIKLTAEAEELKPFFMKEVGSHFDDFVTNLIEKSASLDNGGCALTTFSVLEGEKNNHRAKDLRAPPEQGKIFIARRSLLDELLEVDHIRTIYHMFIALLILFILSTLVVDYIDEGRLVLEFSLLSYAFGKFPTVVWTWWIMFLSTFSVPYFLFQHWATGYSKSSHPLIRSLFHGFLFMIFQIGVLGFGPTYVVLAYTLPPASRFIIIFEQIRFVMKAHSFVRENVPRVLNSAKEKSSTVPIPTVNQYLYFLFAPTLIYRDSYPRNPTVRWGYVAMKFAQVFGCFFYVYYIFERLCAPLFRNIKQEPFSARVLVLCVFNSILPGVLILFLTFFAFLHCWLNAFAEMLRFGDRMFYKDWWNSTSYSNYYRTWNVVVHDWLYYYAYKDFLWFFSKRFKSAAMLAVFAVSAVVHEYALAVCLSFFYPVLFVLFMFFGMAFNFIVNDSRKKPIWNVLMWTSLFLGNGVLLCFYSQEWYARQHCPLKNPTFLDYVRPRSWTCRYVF

[5] = Apparent permeability in MDCK cells assessed as permeability from apical to basolateral side; format: ADME, cell-based, Canis lupus familiaris; conditions: dog
Rattus norvegicus [6] = species on record: Rattus norvegicus; test: Unbound clearance in rat; format: ADME, organism-based; conditions: in vivo
[7] = Clearance in dog; format: ADME, organism-based, Canis lupus familiaris; conditions: in vivo
[8] = Clearance in rat; format: ADME, organism-based; conditions: in vivo
Canis familiaris = species on record: Canis familiaris; test: Unbound clearance in dog; format: ADME, organism-based, Canis lupus familiaris; conditions: in vivo
Hepatocyte = test: Intrinsic clearance in human hepatocytes; format: ADME, cell-based
[9] = Oral bioavailability in rat; format: ADME, organism-based; conditions: in vivo
[10] = Oral bioavailability in dog; format: ADME, organism-based, Canis lupus familiaris; conditions: in vivo
[11] = Apparent permeability in human Caco2 cells assessed as permeability from apical to basolateral side; format: ADME, cell-based; conditions: Caco-2
Plasma = test: Fraction unbound in rat plasma; format: ADME, cell-free
[12] = target: T3, Diacylglycerol O-acyltransferase 1 (Rattus norvegicus, UniProt Q9ERM3); test: Inhibition of DGAT1 in rat microsomes
T3 sequence (Q9ERM3 whole entry): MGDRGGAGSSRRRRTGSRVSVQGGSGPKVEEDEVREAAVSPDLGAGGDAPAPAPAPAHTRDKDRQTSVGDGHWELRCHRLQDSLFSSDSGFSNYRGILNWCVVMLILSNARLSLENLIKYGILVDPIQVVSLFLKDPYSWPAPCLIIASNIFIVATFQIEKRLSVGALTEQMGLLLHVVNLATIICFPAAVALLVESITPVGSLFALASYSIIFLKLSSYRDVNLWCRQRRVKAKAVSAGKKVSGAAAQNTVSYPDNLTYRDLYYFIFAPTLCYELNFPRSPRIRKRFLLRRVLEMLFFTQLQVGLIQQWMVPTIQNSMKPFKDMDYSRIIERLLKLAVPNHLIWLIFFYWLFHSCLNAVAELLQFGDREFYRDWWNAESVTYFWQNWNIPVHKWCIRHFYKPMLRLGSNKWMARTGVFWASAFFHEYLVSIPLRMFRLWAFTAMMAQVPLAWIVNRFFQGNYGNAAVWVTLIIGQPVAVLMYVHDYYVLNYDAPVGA

Cytochrome P450 3A4 = Cytochrome P450 3A4 (Homo sapiens, UniProt P08684); test: Inhibition of CYP3A4 (unknown origin); format: ADME
Cytochrome P450 1A2 = target: T4, Cytochrome P450 1A2 (Homo sapiens, UniProt P05177); test: Inhibition of CYP1A2 (unknown origin); format: ADME
T4 sequence (P05177 whole entry): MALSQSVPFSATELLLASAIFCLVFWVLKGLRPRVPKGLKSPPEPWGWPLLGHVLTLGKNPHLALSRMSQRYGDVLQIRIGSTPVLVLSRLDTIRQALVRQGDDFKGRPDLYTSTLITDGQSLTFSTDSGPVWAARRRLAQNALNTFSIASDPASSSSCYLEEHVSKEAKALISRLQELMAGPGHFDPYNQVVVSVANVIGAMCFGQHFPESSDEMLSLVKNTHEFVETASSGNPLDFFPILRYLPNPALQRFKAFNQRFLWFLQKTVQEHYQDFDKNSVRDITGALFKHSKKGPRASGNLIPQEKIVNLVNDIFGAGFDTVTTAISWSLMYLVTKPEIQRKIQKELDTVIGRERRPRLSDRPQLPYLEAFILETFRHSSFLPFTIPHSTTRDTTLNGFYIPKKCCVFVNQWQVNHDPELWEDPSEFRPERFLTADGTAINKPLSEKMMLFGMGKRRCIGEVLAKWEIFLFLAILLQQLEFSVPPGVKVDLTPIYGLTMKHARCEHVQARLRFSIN

Cytochrome P450 2C9 = Cytochrome P450 2C9 (Homo sapiens, UniProt P11712); test: Inhibition of CYP2C9 (unknown origin); format: ADME
Rattus norvegicus [13] = species on record: Rattus norvegicus; test: Reduction in circulating plasma triglyceride levels in rat by oral lipid tolerance test by PK/PD analysis; format: functional, organism-based
Rattus norvegicus [14] = species on record: Rattus norvegicus; test: Reduction in circulating plasma triglyceride levels in rat by oral lipid tolerance test; format: functional, organism-based
Cytochrome P450 2D6 = Cytochrome P450 2D6 (Homo sapiens, UniProt P10635); test: Inhibition of CYP2D6 (unknown origin); format: ADME
[15] = target: Voltage-gated inwardly rectifying potassium channel KCNH2 (Homo sapiens, UniProt Q12809); test: Inhibition of human ERG
Cytochrome P450 2C19 = Cytochrome P450 2C19 (Homo sapiens, UniProt P33261); test: Inhibition of CYP2C19 (unknown origin); format: ADME
[16] = target: T5, Diacylglycerol O-acyltransferase 2 (Homo sapiens, UniProt Q96PD7); test: Inhibition of human DGAT2
T5 sequence (Q96PD7 whole entry): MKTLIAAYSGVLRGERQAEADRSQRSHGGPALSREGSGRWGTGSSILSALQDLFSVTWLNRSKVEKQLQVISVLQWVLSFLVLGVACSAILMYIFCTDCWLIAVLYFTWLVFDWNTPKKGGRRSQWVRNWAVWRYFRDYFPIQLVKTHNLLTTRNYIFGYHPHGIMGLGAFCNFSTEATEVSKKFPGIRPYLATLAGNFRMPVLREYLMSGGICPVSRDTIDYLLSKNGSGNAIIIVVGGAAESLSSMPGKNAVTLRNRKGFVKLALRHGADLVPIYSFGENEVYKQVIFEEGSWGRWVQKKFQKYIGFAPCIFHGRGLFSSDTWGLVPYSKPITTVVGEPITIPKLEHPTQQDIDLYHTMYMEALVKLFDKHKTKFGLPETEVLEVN

[17] = target: T1, Diacylglycerol O-acyltransferase 1; test: Inhibition of DGAT1 in human HuTu80 cells assessed as reduction in triglyceride levels; format: cell-based

Sequence of Voltage-gated inwardly rectifying potassium channel KCNH2 (Q12809 whole entry): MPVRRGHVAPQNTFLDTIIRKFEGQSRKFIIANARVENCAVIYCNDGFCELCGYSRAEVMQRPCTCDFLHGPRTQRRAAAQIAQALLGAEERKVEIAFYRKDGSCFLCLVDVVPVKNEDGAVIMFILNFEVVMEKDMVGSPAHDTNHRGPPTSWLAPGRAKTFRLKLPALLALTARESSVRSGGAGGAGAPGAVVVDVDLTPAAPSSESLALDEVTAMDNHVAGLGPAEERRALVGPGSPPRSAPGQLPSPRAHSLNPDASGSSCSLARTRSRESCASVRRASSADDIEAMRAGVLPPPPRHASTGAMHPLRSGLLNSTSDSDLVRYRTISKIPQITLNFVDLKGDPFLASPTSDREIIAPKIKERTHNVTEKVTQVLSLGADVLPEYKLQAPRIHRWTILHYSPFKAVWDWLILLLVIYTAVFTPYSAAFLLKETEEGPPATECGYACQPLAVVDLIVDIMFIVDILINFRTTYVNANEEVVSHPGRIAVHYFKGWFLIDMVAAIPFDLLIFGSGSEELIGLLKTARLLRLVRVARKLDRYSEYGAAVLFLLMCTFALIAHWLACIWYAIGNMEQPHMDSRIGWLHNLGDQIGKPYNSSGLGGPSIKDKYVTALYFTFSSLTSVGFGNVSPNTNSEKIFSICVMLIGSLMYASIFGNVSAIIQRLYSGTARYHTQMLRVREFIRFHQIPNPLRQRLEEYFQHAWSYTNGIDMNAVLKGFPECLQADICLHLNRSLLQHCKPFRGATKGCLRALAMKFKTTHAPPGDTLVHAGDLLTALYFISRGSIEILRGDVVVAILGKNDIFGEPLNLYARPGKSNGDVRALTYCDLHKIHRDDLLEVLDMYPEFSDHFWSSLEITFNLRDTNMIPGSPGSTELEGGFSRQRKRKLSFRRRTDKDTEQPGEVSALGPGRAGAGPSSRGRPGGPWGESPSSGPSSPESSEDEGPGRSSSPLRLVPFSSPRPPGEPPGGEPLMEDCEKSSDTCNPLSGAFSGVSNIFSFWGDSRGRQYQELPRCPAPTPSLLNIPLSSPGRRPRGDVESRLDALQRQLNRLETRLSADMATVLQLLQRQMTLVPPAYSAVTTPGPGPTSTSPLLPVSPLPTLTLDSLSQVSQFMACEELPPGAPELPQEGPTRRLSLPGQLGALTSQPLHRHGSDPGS
Sequence of Cytochrome P450 2C9 (P11712 whole entry): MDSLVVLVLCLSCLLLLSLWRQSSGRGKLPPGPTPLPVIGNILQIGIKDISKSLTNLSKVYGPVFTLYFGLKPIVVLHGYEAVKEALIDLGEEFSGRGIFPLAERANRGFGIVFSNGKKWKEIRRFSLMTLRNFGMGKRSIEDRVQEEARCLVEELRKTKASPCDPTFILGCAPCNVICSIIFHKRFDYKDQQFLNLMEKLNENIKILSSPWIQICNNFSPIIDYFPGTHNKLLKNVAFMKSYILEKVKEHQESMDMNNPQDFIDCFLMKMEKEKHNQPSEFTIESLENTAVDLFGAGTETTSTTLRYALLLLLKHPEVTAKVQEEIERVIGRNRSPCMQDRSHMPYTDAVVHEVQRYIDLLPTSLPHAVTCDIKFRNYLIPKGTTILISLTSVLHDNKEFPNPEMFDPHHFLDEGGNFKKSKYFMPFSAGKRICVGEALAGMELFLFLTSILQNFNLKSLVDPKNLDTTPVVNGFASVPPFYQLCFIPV
Sequence of Cytochrome P450 2D6 (P10635 whole entry): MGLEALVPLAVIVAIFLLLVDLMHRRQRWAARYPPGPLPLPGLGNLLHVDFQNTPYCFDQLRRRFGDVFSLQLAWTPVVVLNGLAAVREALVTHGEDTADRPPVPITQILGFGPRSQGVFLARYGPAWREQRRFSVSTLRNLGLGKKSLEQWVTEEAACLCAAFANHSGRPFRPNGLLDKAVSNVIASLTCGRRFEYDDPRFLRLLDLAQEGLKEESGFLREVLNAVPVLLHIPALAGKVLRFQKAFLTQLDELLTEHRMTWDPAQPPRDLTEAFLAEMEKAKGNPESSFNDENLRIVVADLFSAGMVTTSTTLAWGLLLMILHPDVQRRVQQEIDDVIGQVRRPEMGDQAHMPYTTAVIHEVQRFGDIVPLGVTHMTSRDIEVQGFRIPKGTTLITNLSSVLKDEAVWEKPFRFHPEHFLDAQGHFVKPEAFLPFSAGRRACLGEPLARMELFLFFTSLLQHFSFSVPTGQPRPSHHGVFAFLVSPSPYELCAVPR
Sequence of Cytochrome P450 3A4 (P08684 whole entry): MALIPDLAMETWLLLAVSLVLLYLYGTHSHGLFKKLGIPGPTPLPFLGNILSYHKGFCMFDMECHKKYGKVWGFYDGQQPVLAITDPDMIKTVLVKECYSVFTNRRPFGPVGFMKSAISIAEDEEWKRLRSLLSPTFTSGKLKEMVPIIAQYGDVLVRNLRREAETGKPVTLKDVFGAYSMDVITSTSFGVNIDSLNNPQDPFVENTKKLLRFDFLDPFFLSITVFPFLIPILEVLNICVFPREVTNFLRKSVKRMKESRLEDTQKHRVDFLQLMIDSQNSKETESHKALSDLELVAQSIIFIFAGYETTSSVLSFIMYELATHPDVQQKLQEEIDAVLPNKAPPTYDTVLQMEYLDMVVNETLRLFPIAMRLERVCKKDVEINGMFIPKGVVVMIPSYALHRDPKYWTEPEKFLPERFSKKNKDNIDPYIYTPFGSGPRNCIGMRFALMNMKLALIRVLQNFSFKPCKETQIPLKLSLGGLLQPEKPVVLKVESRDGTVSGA
Sequence of Cytochrome P450 2C19 (P33261 whole entry): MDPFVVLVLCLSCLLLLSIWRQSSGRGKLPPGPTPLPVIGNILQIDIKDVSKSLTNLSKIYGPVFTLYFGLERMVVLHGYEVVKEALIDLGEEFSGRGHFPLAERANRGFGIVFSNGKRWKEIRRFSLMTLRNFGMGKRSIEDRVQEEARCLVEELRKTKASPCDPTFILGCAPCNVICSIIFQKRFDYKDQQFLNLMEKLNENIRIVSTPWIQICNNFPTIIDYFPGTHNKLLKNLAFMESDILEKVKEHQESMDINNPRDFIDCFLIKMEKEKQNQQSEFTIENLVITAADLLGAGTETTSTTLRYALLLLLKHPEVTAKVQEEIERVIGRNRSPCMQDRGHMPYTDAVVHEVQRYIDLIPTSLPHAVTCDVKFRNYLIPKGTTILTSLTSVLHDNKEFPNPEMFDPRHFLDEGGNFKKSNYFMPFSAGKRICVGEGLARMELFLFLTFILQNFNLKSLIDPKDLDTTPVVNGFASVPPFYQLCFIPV

Row | solubility thermodynamic at 24 h [1] [µM] | logD [2] | IC50 [3] [nM] | IC50 [4] [nM] | Papp A→B [5] [×10⁻⁶ cm/s] | CL free (Rattus norvegicus [6]) [mL/min/kg] | clearance [7] [mL/min/kg] | clearance [8] [mL/min/kg] | CL free (Canis familiaris) [mL/min/kg] | Intrinsic clearance (CLint) (Hepatocyte) [µL/min/mg] | bioavailability [9] [%] | bioavailability [10] [%] | Structure (SMILES) | further results
1 | 2 (≈ 0.913 µg/mL) |  |  |  |  |  |  |  |  |  |  |  | O=C(O)C[C@H]1CC[C@H](c2ccc(NC(=O)c3nnc(Nc4ccc(F)c(F)c4)o3)cc2)CC1 | 
2 | 5 (≈ 2.2 µg/mL) | 1.2 | 5 | 1800 |  |  |  |  |  |  |  |  | O=C(Nc1ccc(O[C@H]2CC[C@@H](C(=O)O)CC2)cc1)c1nnc(Nc2ccc(F)cc2)o1 | 
3 | 23 (≈ 10.4 µg/mL) | 1.4 | 5 | 5600 | 1.1 |  |  |  |  |  |  |  | O=C(O)c1ccc(Oc2ccc(NC(=O)c3nnc(Nc4ccc(F)c(F)c4)o3)cn2)cc1 | 
4 | 49 (≈ 22.5 µg/mL) | 1.9 | 5 | 6500 | 2 | 740 | 4.7 | 7.4 | 130 | < 2 | 33 | 60 | O=C(Nc1ccc(O[C@H]2CC[C@@H](C(=O)O)CC2)nc1)c1nnc(Nc2ccc(F)c(F)c2)o1 | 
5 | 13 (≈ 6.43 µg/mL) | 1.8 | 15 | 6500 |  |  |  |  |  |  |  |  | O=C(Nc1ccc(O[C@H]2CC[C@H](C(=O)O)CC2)cc1F)c1nnc(Nc2cc(F)c(F)cc2F)o1 | 
6 | 69 (≈ 34.1 µg/mL) | 1.9 | 3 | 310 |  | 200 | 6.5 | 0.4 | 1700 | < 2 | 85 | 76 | O=C(Nc1ccc(O[C@H]2CC[C@@H](C(=O)O)CC2)cc1F)c1nnc(Nc2cc(F)c(F)cc2F)o1 | Papp A→B [11]: 33 ×10⁻⁶ cm/s
7 | 240 (≈ 119 µg/mL) | 1.6 | 6 | 1300 |  |  |  |  |  |  |  |  | O=C(Nc1cnc(O[C@H]2CC[C@@H](C(=O)O)CC2)cc1F)c1nnc(Nc2cc(F)c(F)cc2F)o1 | 
8 | 2200 (≈ 1090 µg/mL) | 1.8 | 4 | 1100 | 15 | 300 | 4.6 | 1.8 | 200 | < 2 | 100 | 61 | O=C(Nc1ccc(O[C@H]2CC[C@@H](C(=O)O)CC2)nc1F)c1nnc(Nc2cc(F)c(F)cc2F)o1 | 
9 | 43 (≈ 20.5 µg/mL) | 1.9 |  |  | 11 | 470 | 11 | 1.1 | 920 | < 2 | 115 | 23 | O=C(Nc1ccc(O[C@H]2CC[C@@H](C(=O)O)CC2)cc1)c1nnc(Nc2cc(F)c(F)cc2F)o1 | Fu (Plasma): 0.4%
10 |  | 1.4 | 18 | 14300 |  |  |  |  |  |  |  |  | N#Cc1ccc(Nc2nnc(C(=O)Nc3ccc(O[C@H]4CC[C@@H](C(=O)O)CC4)cc3)o2)cc1 | 
11 | 11 (≈ 5.44 µg/mL) | 2.3 |  |  |  |  |  |  |  |  |  |  | O=C(Nc1ccc(O[C@H]2CC[C@@H](C(=O)O)CC2)c(F)c1)c1nnc(Nc2cc(F)c(F)cc2F)o1 | 
12 | 27 (≈ 12.9 µg/mL) | 1.9 |  |  |  |  |  |  |  |  |  |  | O=C(Nc1ccc(O[C@H]2CC[C@H](C(=O)O)CC2)cc1)c1nnc(Nc2cc(F)c(F)cc2F)o1 | 
13 | 3 (≈ 1.38 µg/mL) |  | 4 | 1100 |  |  |  |  |  |  |  |  | O=C(Nc1ccc(O[C@H]2CC[C@@H](C(=O)O)CC2)cc1)c1nnc(Nc2ccc(F)c(F)c2)o1 | 
14 | 15 (≈ 7.16 µg/mL) | 1.9 | 3 | 4800 | 16 | 600 | 5.1 | 3.6 | 300 | < 2 |  |  | O=C(Nc1ccc(O[C@H]2CC[C@@H](C(=O)O)CC2)nc1F)c1nnc(Nc2ccc(F)c(F)c2)o1 | 
15 | 4 (≈ 1.89 µg/mL) | 2.2 | 7 | 1500 | 5.1 | 230 | 2.3 | 0.7 | 100 | < 2 | 82 | 35 | O=C(O)C[C@H]1CC[C@@H](Oc2ccc(NC(=O)c3nnc(Nc4ccc(F)c(F)c4)o3)cn2)CC1 | IC50 [12]: 0.9 nM; IC50 (Cytochrome P450 3A4): > 10000 nM; IC50 (Cytochrome P450 1A2): > 10000 nM; IC50 (Cytochrome P450 2C9): > 10000 nM; IC50 (Rattus norvegicus [13]): 0.2 nM; inhibition (Rattus norvegicus [14]): Dose-dependent effect; IC50 (Cytochrome P450 2D6): > 10000 nM; IC50 [15]: > 30000 nM; IC50 (Cytochrome P450 2C19): > 10000 nM; IC50 [16]: 28000 nM; IC50 [17]: 4 nM
16 | 6 (≈ 2.71 µg/mL) | 2.3 |  |  |  |  |  |  |  | < 22 |  |  | O=C(O)c1cccc(Oc2ccc(NC(=O)c3nnc(Nc4ccc(F)c(F)c4)o3)cc2)c1 | Fu (Plasma): < 0.01%
